ChEMBL document CHEMBL1139505, “Synthesis and structure-activity-relationships of 1H-imidazo[4,5-c]quinolines that induce interferon production” (2005)

Experiments:
[1] = Minimum effective concentration required to induce interferon (IFN) production in human peripheral blood mononuclear cells (hPBMC); assay type: functional; conditions: read-out: MEC
Homo sapiens = species: Homo sapiens; test: Minimum effective concentration required to induce interferon (IFN) production in human peripheral blood mononuclear cells (hPBMC); NI = no induction at highest concentration (5.0 ug/mL); assay type: functional

SMILES | minimal effective concentration [1] | MEC (Homo sapiens)
Cc1nc2c(N)nc3ccccc3c2n1CC(C)C | 0.05 µg/mL | –
CC(C)Cn1c(C(F)(F)F)nc2c(N)nc3ccccc3c21 | – | No induction
Cc1nc2c(N)nc3ccccc3c2n1CC(C)(C)O | 0.05 µg/mL | –
CSc1nc2ccccc2c2c1ncn2CC(C)C | – | No induction
CC(C)Cn1cnc2c(Cl)nc3ccccc3c21 | – | No induction
CCCCCn1cnc2c(N)nc3ccccc3c21 | 0.5 µg/mL | –
CCc1nc2c(N)nc3ccccc3c2n1CC(C)(C)O | 0.05 µg/mL | –
CC(C)Cc1nc2c(N)nc3ccccc3c2n1CC(C)(C)O | 0.01 µg/mL | –
CC(C)Cn1cnc2c(N)nc3cc(O)ccc3c21 | 0.5 µg/mL | –
CCCCc1nc2c(N)nc3ccccc3c2n1CC(C)C | 0.01 µg/mL | –
CC(C)Cn1cnc2c(N)nc3ccc(N)cc3c21 | – | No induction
Cc1ccc2c(c1)nc(N)c1ncn(CC(C)C)c12 | 0.5 µg/mL | –
Nc1nc2ccccc2c2c1ncn2CCCCc1ccccc1 | 0.1 µg/mL | –
CC(C)Cn1cnc2c(N)nc3ccc(O)cc3c21 | – | No induction
CC(C)Cn1cnc2c(N)nc3ccc(Br)cc3c21 | – | No induction
CC(C)(O)Cn1cnc2c(N)nc3ccccc3c21 | 0.5 µg/mL | –
Cn1cnc2c(N)nc3ccccc3c21 | 0.5 µg/mL | –
CNc1nc2ccccc2c2c1ncn2CC(C)C | – | No induction
Nc1nc2ccccc2c2c1ncn2-c1ccccc1 | – | No induction
COc1ccc2nc(N)c3ncn(CC(C)C)c3c2c1 | – | No induction
Cc1ccc2nc(N)c3ncn(CC(C)C)c3c2c1 | – | No induction

SMILES | minimal effective concentration [1] | MEC (Homo sapiens)
CC(C)Cn1c(CCc2ccccc2)nc2c(N)nc3ccccc3c21 | 1 µg/mL | –
CC(C)Cn1cnc2c(N)nc3ccccc3c21 [IMIQUIMOD] | 0.5 µg/mL | –
COc1cccc2c1nc(N)c1ncn(CC(C)C)c12 | – | No induction
COc1nc2ccccc2c2c1ncn2CC(C)C | – | No induction
CC(C)Cn1cnc2c(NC(=O)c3ccccc3)nc3ccccc3c21 | – | No induction
CCCCn1cnc2c(N)nc3ccccc3c21 | 0.5 µg/mL | –
CCCCCCc1nc2c(N)nc3ccccc3c2n1CC(C)C | 0.5 µg/mL | –
CC(C)Cn1c(Oc2ccccc2)nc2c(N)nc3ccccc3c21 | – | No induction
Cc1cccc2nc(N)c3ncn(CC(C)C)c3c12 | – | No induction
CCCc1nc2c(N)nc3ccccc3c2n1CC(C)C | 0.05 µg/mL | –
Nc1nc2ccccc2c2c1ncn2CCc1ccccc1 | 0.5 µg/mL | –
CCn1cnc2c(N)nc3ccccc3c21 | 0.5 µg/mL | –
Nc1nc2ccccc2c2c1ncn2Cc1ccccc1 | 0.1 µg/mL | –
Nc1nc2ccccc2c2c1ncn2CCCc1ccccc1 | – | No induction
CC(C)Cn1c(-c2ccccc2)nc2c(N)nc3ccccc3c21 | – | No induction
CC(C)Cn1cnc2c(O)nc3ccccc3c21 | – | No induction
CCCCCCn1cnc2c(N)nc3ccccc3c21 | 0.5 µg/mL | –
Nc1nc2ccccc2c2c1ncn2CCO | 0.5 µg/mL | –
Nc1[nH]c2ccccc2c2ncnc1-2 | 0.5 µg/mL | –
CC(C)Cn1cnc2c(N)nc3c(O)cccc3c21 | 1 µg/mL | –
CCc1nc2c(N)nc3ccccc3c2n1CC(C)C | 0.05 µg/mL | –

SMILES | minimal effective concentration [1] | MEC (Homo sapiens)
CC(C)Cn1cnc2c(N)nc3ccc([N+](=O)[O-])cc3c21 | – | No induction
COc1ccc2c(c1)nc(N)c1ncn(CC(C)C)c12 | 1 µg/mL | –
CC(C)Cn1cnc2c(N)nc3ccc(Cl)cc3c21 | – | No induction
CCCCCCCc1nc2c(N)nc3ccccc3c2n1CC(C)C | 1 µg/mL | –
CC(C)Cn1c(COc2ccccc2)nc2c(N)nc3ccccc3c21 | 0.1 µg/mL | –
CC(C)Cn1cnc2cnc3ccccc3c21 | – | No induction
CCCCCCCCCCCCCCCCn1cnc2c(N)nc3ccccc3c21 | – | No induction
CC(C)(C)n1cnc2c(N)nc3ccccc3c21 | – | No induction
CC(C)n1cnc2c(N)nc3ccccc3c21 | 0.5 µg/mL | –
CCCn1cnc2c(N)nc3ccccc3c21 | 0.5 µg/mL | –
Nc1nc2ccccc2c2c1ncn2CC(O)CO (stereo unspecified) | 5 µg/mL | –
Cc1cccc2c1nc(N)c1ncn(CC(C)C)c12 | – | No induction
COc1nc2c(N)nc3ccccc3c2n1CC(C)C | – | No induction
CCCCCc1nc2c(N)nc3ccccc3c2n1CC(C)C | 0.05 µg/mL | –
CCCCCCCn1cnc2c(N)nc3ccccc3c21 | 0.5 µg/mL | –
CCCCc1nc2c(N)nc3ccccc3c2n1-c1ccccc1 | 0.5 µg/mL | –
CC(O)Cn1cnc2c(N)nc3ccccc3c21 (stereo unspecified) | 0.5 µg/mL | –
CCCCCCCCn1cnc2c(N)nc3ccccc3c21 | – | No induction
CC(C)Cn1c(Cc2ccccc2)nc2c(N)nc3ccccc3c21 | 0.05 µg/mL | –
